Test results reported in patent US11540515B2, “Use of dialkoxybenzenes for control of honey bee mite varroa destructor” (Simon Fraser University, priority 2018, dated 2023).

Key:
honey bees [1] = assay: Bee mortality in hoarding cages, 3c{3,6} provided in sugar solution; format: in vivo, Apis mellifera
Procedure: 3c{3,6} provided in sugar solution: The test was conducted on twenty freshly collected bees in hoarding cages as described above. […] In addition, no differences were apparent in the general behavior of the honeybees. Furthermore, honey bees can ingest compound 3c{3,6} without harm and without increase in mortality.

honey bee antennae = assay: Electroantennography (EAG) on honey bee antennae stimulated with nurse bee headspace odor; parameters: species or system Apis mellifera
From the text: In the electroantennography (EAG), the Varroa foreleg or bee antennae were used for the assay. The organs were stimulated by puffs of nurse honeybee odor, or clean air (control). Briefly, once a foreleg or bee antenna preparation was found responsive to a positive stimulus, the tested chemical was blown over the leg/antenna with or without positive stimuli. Headspace of five nurse bees was used as a positive stimulus. This stimuli were selected for Varroa following the procedure described, for example, in Eliash, N. et al., (2014) PLoS One, (2014) 9(12): e116127, incorporated herein by reference in its entirety, and following dose response tests on nurse antennae challenged with headspace of 1, 5 and 10 nurse or forager bees. Electrophysiological responses of isolated Varroa foreleg and bee antennae were recorded using Synthech equipment, and the order of stimuli was as explained in Singh, K. N. et al., (2014) Apidologie, 46: 380-391, incorporated herein by reference in its entirety. The response amplitude was recorded for each stimulus and normalized relative to air.

[2] = test system: Varroa mites in honey bee colony; assay: Colony test with solid 3c{3,6} in organza bags; format: in vivo, Varroa destructor; conditions: after each addition of solid compound in sachets
Procedure: Colony test. One colony of two supers was treated with solid 3c{3,6}, delivered in organza bags. The colony was otherwise healthy (apart from having Varroa mites), and the bee cluster reached over both boxes. Above the top box was placed a queen excluder and a top-feeding box. The following treatments were done: i) Day 1: 4×60 mg with bags placed above the cluster in the top box (below the queen excluder) only; ii) After 30 days: 4×60 mg with bags placed above the cluster in the top box (below the queen excluder) only; iii) After an additional 14 days, 4×100 mg with two bags placed on top of the lower box (i.e. between the two boxes) and two bags placed on top of the cluster on the top box (just below the queen excluder) iv) After an additional 7 days, 4×100 mg was added and the bags from the previous week were kept in. On the third treatment two Pasteur pipettes with Porapak (wedged between glass wool plugs in the pipette) were installed, one in the middle of the top cluster, the other on the edge of the cluster. These were removed. The colony was fitted with a screened bottom platform and a white Varroa counting drawer underneath the screen. Mites on the counting drawer board were counted every few days.
Porapak cartridges were extracted with hexane:ethyl acetate (4:1) with 40 ng/μL of 1,4-dimethoxybenzene as internal standard. […]

honey bees [3] = assay: Bee mortality in hoarding cages, 3c{3,6} sensed by smell; format: in vivo, Apis mellifera
Procedure: 3c{3,6} sensed by smell: Bees were maintained in the classic hoarding cages. The test was conducted on twenty freshly collected bees in hoarding cages as above. The method that was used for screening potentially harmful compounds was as described, for example, in Medrzycki et al., 2013 (J. Apicultural Res. 52 (4): UNSP 52.4.14, http://dx.doi.org/10.3896/IBRA.1.52.4.14, incorporated herein by reference in its entirety. The bees were provided with water and candy at lib. The experiments were conducted in ten sets in the presence of 30 μl of hexane containing 300 μg of the 3c{3,6} compound presented in Parafilm (5×5 cm); 30 μl of pure hexane was used for control. The experimental and control cages were kept in separate incubators at (28-30° C.) and RH (50-70%) and the bee mortality rate was recorded at 24, 48 and 72 hours. Survival of bees in control and treated groups at the end was similar (79-90%).

Varroa = assay: Choice bioassay (forager vs nurse bee) in petri dish; format: in vivo, Varroa destructor; conditions: in presence of compound, monitored for 3 hours
Procedure: Functional activity of the compound was performed using choice bioassay. Briefly, in the presence of the synthetic compound or solvent as a control, the mites were given a choice of two bees (a forager and a nurse) in a petri dish (90 mm diameter and 17 mm deep glass). The movement of Varroa and its host preference were monitored at every hour for 3 hours.

Varroa mites = assay: Example 2 dose response assay on 10 mites per plate; format: in vivo, Varroa destructor; conditions: doses in microgram
Procedure: The experiments were conducted in glass petri dish under control environment as described above in Example 1. Two sets of experiments were conducted compound 3c{3,6}:
1. Dose response assay on 10 mites per plate. Doses are in microgram.
In the first assay the percentage of dead mites as function of exposure time to different quantities of the compound was measured. […] The effective doses are relatively high.

Varroa destructor mites = assay: Example 3 paralysis assays in petri dishes (dose response, screen, blends); format: in vivo
Procedure: Paralysis assays. These assays were done in 10 cm glass Petri dishes. A 3×3 cm piece of Parafilm was stuck to the lid of the dish, in the middle. The Parafilm received […], either pure (controls) or with the compound (treatments). The bottom of the dish received one freshly thawed nurse and one freshly thawed forager, placed ˜3 cm from the center of the dish. One mite was placed between the nurse and the forager, the lid was closed and groups of dishes were placed in an incubator at 30° C. Humidity levels were kept at around 35-40%.
Observation times were 3 h and 5 h. Mites were scored for whether the mite could move normally, was paralyzed (had difficulty moving) or dead (not moving).
Each assay was done in 5 technical replicates, in two biological replicates. Thus, each biological replicate was scored out of 5.
Experiments were performed in the dishes: i) dose response assays with a single compound at different doses of compound on the Parafilm (1 ng, 10 ng, 100 ng, 1 μg, 10 μg, 100 μg, 1 mg and 10 mg), ii) a screen with six compounds, all at a 1 mg dose, iii) an assay with blends of compounds 3c{3,6} and 3c{6,6}, and iv) one assay without bees (only to check for mite paralysis and death), with compounds 3c{3,6} and 3c{6,6}(pure or 1:1 blend), at 0.5 and 1 mg doses.

Question: What does the source list for `C=CCOc1ccc(OCCC)cc1` [3c{3,6}, 1-allyloxy-4-propoxybenzene]?
Answer: effect on the honeybees (honey bees [1]): did not have negative effect; bees died at the end of experiment (honey bees [1]; after 72 hours, treated group (control 21%)): 5%; response of honey bee antennae towards nurse bee head space odor (honey bee antennae): not affected; number of mites found on the bottom board per day [2]: spike in the number of mites; Survival of bees at the end (honey bees [3]; 300 μg in 30 μl hexane on Parafilm, 72 hours, control and treated groups similar): 79-90%; lethal effect to the honey bees (honey bees [3]; in vivo): No lethal effect; ability of Varroa to reach any host (Varroa): decreased; percentage of dead mites as function of exposure time to different quantities (acaricidal effect, FIG. 1) (Varroa mites): clear and it is dose dependent; paralysis and mite death in screen (Varroa destructor mites; 1 mg dose, 3 h): most reliable mite paralysis; net paralysis+death of mites, comparison of compounds (Varroa destructor mites; 0.5 and 1 mg/treatment): more active than 3c{6,6}; EC50 for paralysis and eventual death of mites (Varroa destructor mites; neat compound on the source, vapors only, 3 h): 41.5 µg
